# Read-outs that look alike come from different tables or passages of the source.
# Tests used:
# [1] = test system: M. suipneumoniae J2206/183^b; test: MIC against mycoplasma in vitro; assay type: cell-based; settings: Mesomycoplasma hyopneumoniae, 144 h
# Strep. dysgalactiae SPD1 = test: MIC against veterinary bacteria in vitro; settings: Streptococcus dysgalactiae, SPD1, 18 h
# Method: (§1) The activity of the compounds of the Examples against various veterinarily important bacteria, was assayed in vitro using two-fold serial dilutions in Diagnostic Sensitivity Test Agar inoculated with 10^4 organisms.
# K. aerogenes A = test: MIC against human bacteria in vitro; assay type: cell-based; settings: Klebsiella aerogenes; K. aerogenes A; 5% chocolated horse blood agar, 18 hours; read-out: MIC
# M. hyorhinis ATCC 23234 = test: MIC against mycoplasma in vitro; assay type: cell-based; settings: Mesomycoplasma hyorhinis, ATCC23234, 144 h
# [2] = test system: Erysipelothrix rhusiopathiae NCTC 8163; test: MIC against veterinary bacteria in vitro; settings: Erysipelothrix rhusiopathiae, NCTC8163, 18 h
# Method: as §1
# Strep. uberis SPU1 = test: MIC against veterinary bacteria in vitro; settings: Streptococcus uberis, SPU1, 18 h
# Method: as §1
# [3] = test system: Staph. aureus B4 (pen. resistant); test: MIC against veterinary bacteria in vitro; settings: Staphylococcus aureus, 18 h
# Method: as §1
# Bacillus subtilis 6633 = test: MIC against human bacteria in vitro; assay type: cell-based
# Bord. bronchiseptica B08 = test: MIC against veterinary bacteria in vitro; settings: Bordetella bronchiseptica, B08, 18 h
# Method: as §1
# E. coli ESS = test: MIC against human bacteria in vitro; assay type: cell-based; settings: Escherichia coli; E. coli ESS; 5% chocolated horse blood agar, 18 hours; read-out: MIC
# Strep. spp. 64/848-C = test: MIC against human bacteria in vitro; assay type: cell-based
# [4] = test system: Pasteurella multocida 1633; test: MIC against human bacteria in vitro; assay type: cell-based; settings: Pasteurella multocida 1633; 5% chocolated horse blood agar, 18 hours; read-out: MIC
# [5] = test system: Haemophilus influenzae Q1; test: MIC against human bacteria in vitro; assay type: cell-based; settings: Haemophilus influenzae Q1; 5% chocolated horse blood agar, 18 hours; read-out: MIC
# [6] = test system: M. hyosynoviae ATCC 25591; test: MIC against mycoplasma in vitro; assay type: cell-based; settings: 144 h
# Staph. aureus Oxford = test: MIC against veterinary bacteria in vitro; settings: Staphylococcus aureus, 18 h
# Method: as §1
# [7] = test system: Corynebacterium pyogenes CY1; test: MIC against veterinary bacteria in vitro; settings: CY1, 18 h
# Method: as §1
# M. suipneumoniae LABER = test: MIC against mycoplasma in vitro; assay type: cell-based; settings: Mesomycoplasma hyopneumoniae, 144 h
# Strep. faecalis I = test: MIC against human bacteria in vitro; assay type: cell-based; settings: Enterococcus faecalis; Strep. faecalis I; 5% chocolated horse blood agar, 18 hours; read-out: MIC
# M. bovis NCTC 10131 = test: microbe, parasite or virus in culture; assay type: cell-based; settings: NCTC10131, 144 h
# S. typhimurium S18 = test: MIC against veterinary bacteria in vitro; settings: Salmonella enterica, TYPHIMURIUM, 18 h
# Method: as §1
# M. suipneumoniae HK(2) = test: MIC against mycoplasma in vitro; assay type: cell-based; settings: Mesomycoplasma hyopneumoniae, 144 h
# Bord. bronchiseptica B09 = test: MIC against veterinary bacteria in vitro; settings: Bordetella bronchiseptica, B09, 18 h
# Method: as §1
# M. pneumoniae ATCC 15492 = test: MIC against mycoplasma in vitro; assay type: cell-based; settings: Mycoplasmoides pneumoniae, ATCC15492, 144 h
# [8] = Bacillus subtilis 6633, 5% chocolated horse blood agar, 18 hours, read-out: MIC
# [9] = M. suipneumoniae J2206/183^b, 6 days, 37° C., read-out: MIC
# [10] = M. hyosynoviae ATCC 25591, 6 days, 37° C., read-out: MIC
# [11] = M. suipneumoniae HK(2), 6 days, 37° C., read-out: MIC
# [12] = M. pneumoniae ATCC 15492, 6 days, 37° C., read-out: MIC
Structure (SMILES),MIC [1],MIC (Strep. dysgalactiae SPD1),MIC (K. aerogenes A),MIC (M. hyorhinis ATCC 23234),MIC [2],MIC (Strep. uberis SPU1),MIC [3],MIC (Bacillus subtilis 6633; [8]),MIC (Bord. bronchiseptica B08),MIC (E. coli ESS),MIC [4],MIC [5],MIC [6],MIC (Staph. aureus Oxford),MIC [7],MIC (M. suipneumoniae LABER),MIC (Strep. faecalis I),MIC (M. bovis NCTC 10131),MIC (S. typhimurium S18),MIC (Bord. bronchiseptica B09),also measured
"COc1ccc(-c2cnc(/C=C(\C)C[C@@H]3OC[C@H](C[C@@H]4O[C@H]4[C@@H](C)[C@H](C)O)[C@@H](O)[C@H]3O)o2)cc1 [Example 4, 5-p-methoxyphenyl-2-(1-normon-2-yl)oxazole A]",1 µg/mL,1.25 µg/mL,> 100 µg/mL,0.5 µg/mL,> 80 µg/mL,0.312 µg/mL,5 µg/mL,5 µg/mL,> 80 µg/mL,2.5 µg/mL,25 µg/mL,2.5 µg/mL,0.5 µg/mL,0.625 µg/mL,> 80 µg/mL,0.5 µg/mL,> 100 µg/mL,0.025 µg/mL,> 80 µg/mL,20 µg/mL,"MIC (Strep. spp. 64/848-C; Strep. spp. 64/848-C, 5% chocolated horse blood agar, 18 hours, read-out: MIC): 5 µg/mL; MIC (M. suipneumoniae HK(2)): 1 µg/mL"
"C/C(=C\c1ncc(-c2ccc(CO)cc2)o1)C[C@@H]1OC[C@H](C[C@@H]2O[C@H]2[C@@H](C)[C@H](C)O)[C@@H](O)[C@H]1O [Example 13, 5-p-Hydroxymethylphenyl-2-(1-normon-2-yl) oxazole A]",,0.625 µg/mL,> 128 µg/mL,0.1 µg/mL,> 80 µg/mL,0.312 µg/mL,1.25 µg/mL,,> 80 µg/mL,2 µg/mL,2 µg/mL,0.5 µg/mL,,1.25 µg/mL,> 80 µg/mL,,> 128 µg/mL,≤ 0.01 µg/mL,> 80 µg/mL,20 µg/mL,"MIC [1, 9]: 0.25 µg/mL; MIC (Bacillus subtilis 6633; Bacillus subtilis, 6633, 18 h): 1 µg/mL; MIC (Strep. spp. 64/848-C; 18 h): 1 µg/mL; MIC [6, 10]: 0.25 µg/mL; MIC (M. suipneumoniae HK(2); [11]): 0.25 µg/mL; MIC (M. pneumoniae ATCC 15492; [12]): 0.5 µg/mL"
"C/C(=C\c1ncc(C)o1)C[C@@H]1OC[C@H](C[C@@H]2O[C@H]2[C@@H](C)[C@H](C)O)[C@@H](O)[C@H]1O [Example 14, 5-Methyl-2-(1-normon-2-yl) oxazole A]",5 µg/mL,2.5 µg/mL,> 128 µg/mL,2.5 µg/mL,> 80 µg/mL,2.5 µg/mL,10 µg/mL,4 µg/mL,> 80 µg/mL,32 µg/mL,16 µg/mL,2 µg/mL,5 µg/mL,10 µg/mL,> 80 µg/mL,2.5 µg/mL,> 128 µg/mL,0.05 µg/mL,> 80 µg/mL,> 80 µg/mL,MIC (M. suipneumoniae HK(2)): 5 µg/mL; MIC (M. pneumoniae ATCC 15492; [12]): > 10 µg/mL
"C/C(=C\c1ncc(-c2ccc(C=O)cc2)o1)C[C@@H]1OC[C@H](C[C@@H]2O[C@H]2[C@@H](C)[C@H](C)O)[C@@H](O)[C@H]1O [Example 15, 5-p-Formylphenyl-2-(1-normon-2-yl) oxazole A]",,1.25 µg/mL,> 128 µg/mL,0.25 µg/mL,> 80 µg/mL,0.625 µg/mL,2.5 µg/mL,2 µg/mL,80 µg/mL,16 µg/mL,32 µg/mL,4 µg/mL,,1.25 µg/mL,> 80 µg/mL,,> 128 µg/mL,0.05 µg/mL,> 80 µg/mL,20 µg/mL,"MIC [1, 9]: 0.5 µg/mL; MIC [6, 10]: 0.5 µg/mL; MIC (M. suipneumoniae LABER; M. suipneumoniae LABER, 6 days, 37° C., read-out: MIC): 0.5 µg/mL; MIC (M. suipneumoniae HK(2); [11]): 0.5 µg/mL; MIC (M. pneumoniae ATCC 15492): 1 µg/mL"
